Measurements taken from patent US7585877B2, “Aminophenyl derivatives as selective androgen receptor modulators” (Acadia Pharmaceuticals, Inc., priority 2005, dated 2009).
Structures can show the parent of a compound that is named as a salt. Where two headings read alike, the source gives them in different places.

Tests used:
[1] = test system: castrated male Sprague Dawley rats; test: In vivo activity in castrated rats: wet tissue weights; design: species or system rat
Procedure: (§1) Test compounds of formula I are administered p.o. daily for two weeks to castrated male Sprague Dawley rats (n=3). The effects of the test compounds (1, 3, 10, 30 mg/kg) are compared to testosterone propionate (1 and 3 mg/kg s.c.; positive control) and vehicle (10% Tween80; negative control). Blood and wet weights of prostate gland and seminal vesicle are measured after sacrifice that occurs 24 hours after the last dose. Blood is collected in heparin collection tubes after sacrifice that occurred 24 hours after the last dose. Blood is centrifuged and plasma collected and plasma samples frozen.

[2] = test system: Rat luteinizing hormone (LH) plasma levels; test: In vivo activity in castrated rats: plasma luteinizing hormone (ELISA); conditions: castrated rats (FIG. 4)
Procedure: as §1
Rat luteinizing hormone (LH) plasma levels are determined using an enzyme linked immunoabsorbent assay (ELISA) from Amersham as per manufacturer's instructions. The solid phase assay is based on the competition between unlabeled rLH and a fixed quantity of biotin labelled rLH for a limited amount of rLH specific antibody. A conjugate streptavidin/peroxidase allows for signal amplification and detection in presence of the substrate.

Androgen AR receptor = target: T1, Androgen AR receptor (Homo sapiens, UniProt P10275); test: Receptor Selection and Amplification Technology (R-SAT) functional receptor assay; type: cell-based; conditions: for Emax: read-out: % Efficacy
T1 construct: expressed in transfected cells; host or cells: NIH3T3 cells
T1 sequence (P10275 1-920): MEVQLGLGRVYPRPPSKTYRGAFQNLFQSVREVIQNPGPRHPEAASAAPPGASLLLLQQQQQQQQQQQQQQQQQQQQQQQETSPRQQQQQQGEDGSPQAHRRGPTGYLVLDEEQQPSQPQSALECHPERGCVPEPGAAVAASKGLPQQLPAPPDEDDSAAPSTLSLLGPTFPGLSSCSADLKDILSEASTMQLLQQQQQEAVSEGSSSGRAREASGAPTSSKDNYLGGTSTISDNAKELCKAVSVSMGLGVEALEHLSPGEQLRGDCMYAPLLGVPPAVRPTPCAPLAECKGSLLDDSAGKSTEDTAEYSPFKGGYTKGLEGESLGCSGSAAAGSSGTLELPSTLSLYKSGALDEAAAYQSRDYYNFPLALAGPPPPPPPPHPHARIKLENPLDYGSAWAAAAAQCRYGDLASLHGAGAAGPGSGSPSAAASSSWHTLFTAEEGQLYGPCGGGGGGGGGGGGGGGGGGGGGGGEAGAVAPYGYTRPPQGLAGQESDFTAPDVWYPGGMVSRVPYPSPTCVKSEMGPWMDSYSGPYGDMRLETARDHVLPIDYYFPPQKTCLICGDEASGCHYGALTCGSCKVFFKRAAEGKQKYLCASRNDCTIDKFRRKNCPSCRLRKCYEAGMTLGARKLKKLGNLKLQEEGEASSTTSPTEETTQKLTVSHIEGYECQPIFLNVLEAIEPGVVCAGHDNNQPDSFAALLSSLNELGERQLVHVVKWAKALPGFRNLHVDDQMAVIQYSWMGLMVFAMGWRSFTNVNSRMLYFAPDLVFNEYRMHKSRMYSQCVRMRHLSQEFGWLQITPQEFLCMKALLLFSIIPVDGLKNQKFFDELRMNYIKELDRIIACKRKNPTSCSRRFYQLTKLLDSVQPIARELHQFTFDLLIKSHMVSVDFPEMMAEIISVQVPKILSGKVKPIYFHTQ
Procedure: The functional receptor assay, Receptor Selection and Amplification Technology (R-SAT™), was used with minor modifications from the procedure described previously (Brann, M. R., U.S. Pat. No. 5,707,798, which is hereby incorporated herein by reference in its entirety) to screen compounds for efficacy at the Androgen AR receptor. Briefly, NIH3T3 cells were grown in roller bottles to 70-80% confluence. Cells were then transfected for 12-16 h with plasmid DNAs using Polyfect (Qiagen Inc.) as per the manufacturer's protocol. R-SAT assays were typically performed by transfecting 30 ug/bottle of receptor and 50 ug/bottle of β-galactosidase plasmid DNA. All receptor and helper constructs used were in mammalian expression vectors. Helpers are defined as signaling molecules that modulate both ligand-dependent and/or ligand-independent function of the AR receptor, typically co-activators.
NIH3T3 cells were transfected for 12-16 h, then trypsinized and frozen in DMSO. Frozen cells were later thawed, plated at 10,000-40,000 cells per well of a 96 well plate containing drug. Cells were then grown in a humidified atmosphere with 5% ambient CO2 for five days. Media was then removed from the plates and marker gene activity was measured by the addition of the β-galactosidase substrate o-nitrophenyl β-D-galactopyranoside (ONPG, in PBS with 5% NP-40). The resulting colorimetric reaction was measured in a spectrophotometric plate reader (Titertek Inc.) at […]. All data were analyzed using the computer program XLFit (IDBSm).

[3] = R-SAT, transfected NIH3T3 cells

CCC(=O)O[C@H]1CC[C@H]2[C@@H]3CCC4=CC(=O)CC[C@]4(C)[C@H]3CC[C@]12C [testosterone propionate, reference compound]
prostate wet tissue weight as compared to vehicle treatment ([1]; 1 mg/kg daily s.c. for two weeks, castrated rats (FIG. 1)): significant increases | seminal vesicle wet tissue weight as compared to vehicle treatment ([1]; 1 mg/kg daily s.c. for two weeks, castrated rats (FIG. 2)): significant increases | levator ani muscle wet tissue weight as compared to vehicle treatment ([1]; 1 mg/kg daily s.c. for two weeks, castrated rats (FIG. 3)): significant increases | plasma LH levels ([2]; 1 mg/kg, s.c. for 14 days): restored LH levels to those obtained in naive rats

Cc1c(N2[C@@H]3CC[C@H]2C[C@@H](O)C3)ccc(C#N)c1Cl [165RL90, 2-Chloro-4-(3-endo-hydroxy-8-azabicyclo[3.2.1]octan-8-yl)-3-methylbenzonitrile, hydrochloride]
EC50 (Androgen AR receptor): 2 nM | Emax (Androgen AR receptor; [3]): 81%

Cc1c(N2[C@@H]3CC[C@H]2C[C@@](C)(O)C3)ccc(C#N)c1Cl [198RL26, 2-Chloro-4-(3-endo-hydroxy-3-exo-methyl-8-azabicyclo[3.2.1]oct-8-yl)-3-methylbenzonitrile hydrochloride]
EC50 (Androgen AR receptor): 1.58 nM | Emax (Androgen AR receptor; [3]): 79% | wet tissue weights (prostate, seminal vesicle, levator ani muscle) ([1]; 3 mg/kg daily s.c. (so in the source) for two weeks, castrated rats): did not appear to significantly alter wet tissue weights | dose relative to TP at which negative side effects (increased seminal vesicle and prostate size) become evident ([1]; castrated rats, two weeks daily dosing): at least 100 × of TP | wet tissue weights (prostate, seminal vesicle, levator ani muscle) ([1]; higher doses (3 and 10 mg/kg) daily, castrated rats): appeared to significantly increase wet tissue weights, however, not to the extent of TP | plasma LH levels ([2]; 10 mg/kg p.o. for 14 days): complete reversal | plasma LH levels ([2]; various doses, p.o. for 14 days): dose-dependent suppression of plasma LH levels

Cc1c(N2[C@@H]3CC[C@H]2C[C@@H](O)C3)ccc([N+](=O)[O-])c1Cl [173FBA73bL, endo-8-(3-chloro-2-methyl-4-nitrophenyl)-8-azabicyclo[3.2.1]octan-3-ol]
Emax (Androgen AR receptor; [3]): 80% | EC50 (Androgen AR receptor; R-SAT, transfected NIH3T3 cells, read-out: pEC50 (converted)): 3.16 nM
